In patent US20220323406A1, “METHODS AND COMPOSITIONS FOR DIFFERENTIATING STEM CELLS” (Massachusetts Institute of Technology, priority 2019, published 2022):

What was measured:
[1] = test system: ENR+CD organoids (ISC to Paneth cell differentiation); experiment: Primary screen: CCh-stimulated lysozyme secretion LYZ.S, 2.5-D 384-well ENR+CD organoid differentiation; format: cell-based, mouse; settings: primary screen
From the text: (§1) High-throughput screening.

ENR+CD organoids = experiment: Primary screen: ATP (CellTiter-Glo 3D, CTG) cell number/viability, 2.5-D 384-well ENR+CD organoids;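 further: compounds given at plating and again on day 3 over a 6-day differentiation from ENR+CV stem-cell-enriched precursors, ATP measured on day 6, plate median as control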
[2] = test system: ENR+CD organoids (ISC to Paneth cell differentiation); experiment: Primary screen: basal (non-stimulated) lysozyme secretion LYZ.NS, 2.5-D 384-well ENR+CD organoid differentiation; format: cell-based, mouse
From the text: as §1

[3] = primary screen, dose 0.08 uM, FC relative to plate median
[4] = primary screen, dose 0.08 uM, standard z score
[5] = primary screen, dose 0.40 uM, FC relative to plate median
[6] = primary screen, dose 0.40 uM, standard z score
[7] = primary screen, dose 2.00 uM, FC relative to plate median
[8] = primary screen, dose 2.00 uM, standard z score
[9] = primary screen, dose 10.00 uM, FC relative to plate median
[10] = primary screen, dose 10.00 uM, standard z score
[11] = 1st dose row of the treatment (0.08 uM by row order; dose not reprinted)
[12] = 2nd dose row of the treatment (0.40 uM by row order; dose not reprinted)
[13] = 3rd dose row of the treatment (2.00 uM by row order; dose not reprinted)
[14] = 4th dose row of the treatment (10.00 uM by row order; dose not reprinted)
[15] = primary screen, 1st dose row of the treatment (0.08 uM by row order; dose not reprinted)
[16] = primary screen, 2nd dose row of the treatment (0.40 uM by row order; dose not reprinted)
[17] = primary screen, 3rd dose row of the treatment (2.00 uM by row order; dose not reprinted)
[18] = primary screen, 4th dose row of the treatment (10.00 uM by row order; dose not reprinted)
[19] = primary screen, standard z score, dose 0.08 uM
[20] = primary screen, standard z score, dose 0.40 uM
[21] = primary screen, standard z score, dose 2.00 uM
[22] = primary screen, standard z score, dose 10.00 uM
[23] = primary screen; dose 0.40 uM; FC vs plate median
[24] = primary screen; dose 2.00 uM; FC vs plate median
[25] = primary screen; dose 10.00 uM; FC vs plate median

Compound	Dose.FC.LYZ.S ([1]; dose 0.08 uM) [log2 fold change]	Dose.FC.LYZ.S ([1]; dose 0.40 uM) [log2 fold change]	Dose.FC.LYZ.S ([1]; dose 2.00 uM) [log2 fold change]	Dose.FC.LYZ.S ([1]; dose 10.00 uM) [log2 fold change]	Dose.FC.CTG (ENR+CD organoids; primary screen, dose 0.08 uM) [log2 fold change]	Z.CTG (standard z score) (ENR+CD organoids; primary screen, dose 0.08 uM)	Dose.FC.CTG (ENR+CD organoids; primary screen, dose 0.40 uM) [log2 fold change]	Dose.FC.CTG (ENR+CD organoids; primary screen, dose 2.00 uM) [log2 fold change]	Dose.FC.CTG (ENR+CD organoids; primary screen, dose 10.00 uM) [log2 fold change]	Dose.FC.LYZ.NS ([2]; primary screen, dose 0.08 uM) [log2 fold change]	Z.LYZ.NS (standard z score) ([2]; primary screen, dose 0.08 uM)	Dose.FC.LYZ.NS ([2]; primary screen, dose 0.40 uM) [log2 fold change]	Z.LYZ.NS (standard z score) ([2]; primary screen, dose 0.40 uM)	Dose.FC.LYZ.NS ([2]; primary screen, dose 2.00 uM) [log2 fold change]	Z.LYZ.NS (standard z score) ([2]; primary screen, dose 2.00 uM)	Dose.FC.LYZ.NS ([2]; primary screen, dose 10.00 uM) [log2 fold change]	Z.LYZ.NS (standard z score) ([2]; primary screen, dose 10.00 uM)	other results
CC(C)(C)c1cc(NC(=O)Nc2ccc(-c3cn4c(n3)sc3cc(OCCN5CCOCC5)ccc34)cc2)no1 [Quizartinib (AC220)]																		Dose.FC.LYZ.S ([1]; dose 0.08 uM, FC relative to plate median): 0.154 log2 fold change; Dose.FC.LYZ.S ([1]; dose 0.40 uM, FC relative to plate median): 0.083 log2 fold change; Dose.FC.LYZ.S ([1]; dose 2.00 uM, FC relative to plate median): −0.077 log2 fold change; Dose.FC.LYZ.S ([1]; dose 10.00 uM, FC relative to plate median): −0.200 log2 fold change; Dose.FC.CTG (ENR+CD organoids; [3]): 0.351 log2 fold change; Z.CTG (ENR+CD organoids; [4]): 0.838; Dose.FC.CTG (ENR+CD organoids; [5]): 0.149 log2 fold change; Z.CTG (ENR+CD organoids; [6]): 0.355; Dose.FC.CTG (ENR+CD organoids; [7]): −0.352 log2 fold change; Z.CTG (ENR+CD organoids; [8]): −0.841; Dose.FC.CTG (ENR+CD organoids; [9]): −0.644 log2 fold change; Z.CTG (ENR+CD organoids; [10]): −1.539; Dose.FC.LYZ.NS [2, 3]: 0.096 log2 fold change; Z.LYZ.NS [2, 4]: 0.836; Dose.FC.LYZ.NS [2, 5]: 0.039 log2 fold change; Z.LYZ.NS [2, 6]: 0.341; Dose.FC.LYZ.NS [2, 7]: −0.052 log2 fold change; Z.LYZ.NS [2, 8]: −0.452; Dose.FC.LYZ.NS [2, 9]: −0.173 log2 fold change; Z.LYZ.NS [2, 10]: −1.505
C=C1C(=O)O[C@H]2[C@H]1CC/C(C)=C/CC[C@@]1(C)O[C@@H]21 [(−)-Parthenolide]	0.124	0.165	0.068	0.082	0.135	0.322	0.228	0.157	0.157	0.058	0.506	0.067	0.583	0.089	0.776	0.133	1.159	SSMD.LYZ.S_Rep (strictly standardized mean difference) [1, 11]: 0.679; Z.LYZ.S (standard z score) [1, 11]: 0.799; SSMD.LYZ.S_Rep (strictly standardized mean difference) [1, 12]: 0.763; Z.LYZ.S (standard z score) [1, 12]: 1.067; SSMD.LYZ.S_Rep (strictly standardized mean difference) [1, 13]: 0.506; Z.LYZ.S (standard z score) [1, 13]: 0.441; SSMD.LYZ.S_Rep (strictly standardized mean difference) [1, 14]: 0.345; Z.LYZ.S (standard z score) [1, 14]: 0.530; SSMD.CTG.Rep (strictly standardized mean difference) (ENR+CD organoids; [15]): 0.498; SSMD.CTG.Rep (strictly standardized mean difference) (ENR+CD organoids; [16]): 0.736; SSMD.CTG.Rep (strictly standardized mean difference) (ENR+CD organoids; [17]): 0.482; SSMD.CTG.Rep (strictly standardized mean difference) (ENR+CD organoids; [18]): 0.257; Z.CTG (standard z score) (ENR+CD organoids; primary screen, dose 0.40 uM): 0.544; Z.CTG (standard z score) (ENR+CD organoids; primary screen, dose 2.00 uM): 0.376; Z.CTG (standard z score) (ENR+CD organoids; primary screen, dose 10.00 uM): 0.374; SSMD.LYZ.NS_Rep (strictly standardized mean difference) [2, 15]: 0.601; SSMD.LYZ.NS_Rep (strictly standardized mean difference) [2, 16]: 0.480; SSMD.LYZ.NS_Rep (strictly standardized mean difference) [2, 17]: 0.920; SSMD.LYZ.NS_Rep (strictly standardized mean difference) [2, 18]: 0.998
c1ccc(NCc2ccc(CNc3ccccn3)cc2)nc1 [WZ811]	0.296	0.007	0.074	0.019	0.140	0.334	−0.034	0.077	0.044	0.154	1.337	0.019	0.162	0.094	0.815	0.005	0.045	Z.CTG (standard z score) (ENR+CD organoids; primary screen, dose 0.40 uM): −0.082; Z.CTG (standard z score) (ENR+CD organoids; primary screen, dose 2.00 uM): 0.184; Z.CTG (standard z score) (ENR+CD organoids; primary screen, dose 10.00 uM): 0.104
NC(=O)c1ccc(I)c([N+](=O)[O-])c1 [Iniparib (B5I-201)]						0.810					0.364							Dose.FC.LYZ.S (log2 fold change) ([1]; dose 0.08 uM): 0.032; Dose.FC.CTG (log2 fold change) (ENR+CD organoids; primary screen, dose 0.08 uM): 0.339; Dose.FC.LYZ.NS (log2 fold change) ([2]; primary screen, dose 0.08 uM): 0.042
CC1C(=O)OC2C(O)C34C5CC(C(C)(C)C)C36C(OC(=O)C6O)OC4(C(=O)O5)C12O (centres unmarked) [Ginkgolide B]	0.034	0.047	0.033	−0.035	−0.076		0.034	−0.154	0.177	0.041		0.109		0.061		−0.037		Z.CTG (ENR+CD organoids; [19]): −0.182; Z.CTG (ENR+CD organoids; [20]): 0.081; Z.CTG (ENR+CD organoids; [21]): −0.369; Z.CTG (ENR+CD organoids; [22]): 0.422; Z.LYZ.NS [2, 19]: 0.353; Z.LYZ.NS [2, 20]: 0.950; Z.LYZ.NS [2, 21]: 0.528; Z.LYZ.NS [2, 22]: −0.326
COc1c(O)cc2c(c1O)[C@@H]1O[C@H](CO)[C@@H](O)[C@H](O)[C@H]1OC2=O [Bergenin]	0.198	0.108	0.125	0.144	0.288		0.245	0.205	0.344	0.164	1.432	0.098	0.852	0.080	0.699	0.103	0.898	
CN(Cc1cnc2nc(N)nc(N)c2n1)c1ccc(C(=O)N[C@@H](CCC(=O)O)C(=O)O)cc1 [Methotrexate]											−0.843							Dose.FC.LYZ.S (log2 fold change) ([1]; dose 0.08 uM): −0.159; Dose.FC.LYZ.S ([1]; dose 0.40 uM, FC vs plate median): −0.129 log2 fold change; Dose.FC.LYZ.S ([1]; dose 2.00 uM, FC vs plate median): −0.177 log2 fold change; Dose.FC.LYZ.S ([1]; dose 10.00 uM, FC vs plate median): −0.156 log2 fold change; Dose.FC.CTG (log2 fold change) (ENR+CD organoids; primary screen, dose 0.08 uM): −0.615; Dose.FC.CTG (ENR+CD organoids; [23]): −0.722 log2 fold change; Dose.FC.CTG (ENR+CD organoids; [24]): −0.701 log2 fold change; Dose.FC.CTG (ENR+CD organoids; [25]): −0.642 log2 fold change; Dose.FC.LYZ.NS (log2 fold change) ([2]; primary screen, dose 0.08 uM): −0.097; Z.LYZ.NS [2, 6]: −0.332; Z.LYZ.NS [2, 8]: −1.132; Z.LYZ.NS [2, 10]: −0.658; Dose.FC.LYZ.NS [2, 23]: −0.038 log2 fold change; Dose.FC.LYZ.NS [2, 24]: −0.130 log2 fold change; Dose.FC.LYZ.NS [2, 25]: −0.076 log2 fold change
COc1ccccc1OCCNCC(O)COc1cccc2[nH]c3ccccc3c12 (centres unmarked) [Carvedilol]	−0.009	−0.079	−0.087	0.019	0.057		−0.014	−0.151	−0.242	0.002		−0.020		0.099		−0.053		Z.LYZ.NS [2, 19]: 0.021; Z.LYZ.NS [2, 20]: −0.175; Z.LYZ.NS [2, 21]: 0.866; Z.LYZ.NS [2, 22]: −0.464
